Experimental data published in patent US10596166B2, “Combination composition comprising huperzine” (priority 2015, dated 2020).

Assays:
[1] = test system: primary cortical neurons injured by glutamate; assay: glutamate toxicity on primary cortical neurons (neuron survival, neurite network); assay type: cell-based, rat; conditions: glutamate 40 μM, 20 min
Experimental: Rat cortical neurons were cultured as described by Singer et al., 1999 [J. Neuroscience 19(7), 2455-2463] and Callizot et al. 2013 [J. Neurosc. Res. 91(5), 706-716].
Briefly, pregnant females (Wistar; JanvierLabs, St Berthevin, France) at 15 days of gestation were killed by cervical dislocation. Foetuses were collected and immediately placed in ice-cold L15 Leibovitz medium (Pan Biotech, Aidenbach, Germany, Batch: 4120413) with a 2% penicillin (10,000 U/ml) and streptomycin (10 mg/ml) solution (PS; Pan Biotech, Aidenbach, Germany) and 1% bovine serum albumin (BSA; Pan Biotech, Aidenbach, Germany). Cortex was treated for 20 min at 37° C. with a trypsin-EDTA (Pan Biotech, Aidenbach, Germany) solution at a final concentration of 0.05% trypsin and 0.02% EDTA. The dissociation was stopped by addition of Dulbecco's modified Eagle's medium (DMEM) with 4.5 g/liter of glucose (Pan Biotech, Aidenbach, Germany), containing DNAse I grade II (final concentration 0.5 mg/ml; Pan Biotech, Germany) and 10% fetal calf serum (FCS; Invitrogen, Cergy Pointoise, France). Cells were mechanically dissociated by three forced passages through the tip of a 10-ml pipette. Cells were then centrifuged at 515 g for 10 min at 4° C. The supernatant was discarded, and the pellet was resuspended in a defined culture medium consisting of Neurobasal medium (Invitrogen, Cergy Pointoise, France) with a 2% solution of B27 supplement (Invitrogen, Cergy Pointoise, France), 2 mmol/liter of L-glutamine (Pan Biotech, Aidenbach, Germany), 2% of PS solution, and 10 ng/ml of brain-derived neurotrophic factor (BDNF; Pan Biotech, Aidenbach, Germany). Viable cells were counted in a Neubauer cytometer, using the trypan blue exclusion test. The cells were seeded at a density of 30,000 per well in 96-well plates precoated with poly-L-lysine (Corning Biocoat, Tewksbury, USA) and were cultured at 37° C. in an air (95%)-CO2 (5%) incubator. The medium was changed every 2 days.
On day 13, the cultures were exposed for 20 minutes to glutamate 40 μM in the absence or presence of Huperzia serrata extracts. Then the cells were washed out and new fresh medium containing or not Huperzia serrata extracts was added for another 48 hours.
The cells were then fixed by a cold solution ethanol/acetic acid (95:5 v/v) for 5 minutes at −20° C. After permeabilization with 0.1% of saponin (Sigma), cells were incubated for 2 hours with mouse monoclonal antibody against microtubule-associated-protein 2 (MAP 2; Sigma) at dilution of 1/400 in PBS containing 1% foetal calf serum (Invitrogen) and 0.1% of saponin.
Neuron survival assessment: For each condition 6 wells were assessed, 20 pictures per well were taken using InCell Analyzer™ 1000 (GE Healthcare) with 20× magnification to assess cell bodies (MAP 2 staining). Analysis of picture was done using Developer software (GE Healthcare), the number of neurons per picture was recorded. A mean of neuron number of the 20 pictures was automatically calculated per well, then one data was provided per well (total of 6 raw data were provided per condition).
Neurite network length assessment: For each condition 6 wells were assessed, 20 pictures per well were taken using InCell Analyzer™ 1000 with 20× magnification (20 pictures at X20 representing ˜80% of the total well surface), to assess MAP-2 staining. Analysis of picture was done using Developer software, the total neurite length per picture was recorded. A mean neurite length of the 20 pictures was automatically calculated per well, then one data was provided per well (total of 6 raw data were provided per condition).
The protocol used in these assays is the same as described in example 1. After 13 days of neuron culture, the candidate compounds were solved in DMSO and diluted in culture medium. […]

[2] = test system: mice; conditions: adult and aged mice; cited from earlier work
[3] = test system: ALS patients; conditions: several months; cited from earlier work

Q: With `O=C(O)c1cc(O)c(O)c(O)c1` [GA, gallic acid] as the compound, how does the neuron survival ([1]; 10 and 50 μM) read?
A: ~80%

Q: What about the neurite network ([1]; GA 10 pM to 50 μM) of the same compound?
A: no protection

Q: Which “memory retention and memory retrieval” value [2] does the source give for `CC1=C[C@H]2Cc3[nH]c(=O)ccc3[C@]3(C1)NCCC[C@H]23` [HupB, Huperzine B] here?
A: improved memory retention and memory retrieval

Q: Which prolongation of survival [3] does the source give for `Nc1nc2ccc(OC(F)(F)F)cc2s1` [Riluzole] here?
A: ~7%

Q: For `COc1cc(/C=C/C(=O)O)cc(OC)c1O` [SA, sinapic acid], which neuron survival ([1]; 100, 10 and 1 nM) is on record?
A: ~80%

Q: And the neurite network ([1]; SA 10 pM to 50 μM)?
A: no protective effect

Q: What about the neuron survival ([1]; SA at the lowest concentrations) of the same compound?
A: inactive

Q: With `O=C(O)/C=C/c1ccc(O)cc1` [pCouA, para-coumaric acid] as the compound, how does the neuron survival ([1]; 100 nM and 1 μM) read?
A: ~80%

Q: What about the neurite network ([1]; only 1 μM) of the same compound?
A: protective effect

Q: What about the “survival and neurite network” value ([1]; p-CouA at the lowest concentrations) of the same compound?
A: inactive
